Source: patent US20180286508A1, “DETERMINATION OF FAVORABLE DATE(S) FOR THERAPEUTIC TREATMENT DELIVERY” (Mayo Foundation for Medical Education and Research, priority 2015, published 2018)
Values joined by “and” are separate entries in the source; they are usually repeats but may differ in a detail not shown here. Identical values can stand only once.

Legend:
[1] = tested on: patients with unresectable stage IV malignant melanoma; test: Clinical trial of timed TMZ chemotherapy (timed on CRP oscillation) in stage IV melanoma patients; assay type: in vivo, human
From the text: In an example clinical trial described herein, the patient population included patients with unresectable stage IV malignant melanoma. Eligible patients had unresectable, histologically confirmed stage IV disease, age over 18 years, measurable disease as defined by the Response Evaluation Criteria in Solid Tumors (RECIST), Eastern Cooperative Oncology Group (ECOG) performance status (PS) of 0-2, and life expectancy ≥3 months. Both newly diagnosed, previously untreated patients, as well as patients who have had prior therapy for their metastatic disease were enrolled.
Treatment was initiated with temozolomide (TMZ) 150 mg/m^2 on days 1-5 on cycle 1 and the dose was increased to 200 mg/m^2 for all subsequent cycles if tolerated. Patients were treated every 4 weeks until progression, unacceptable toxicity or patient refusal. Prior to initiation of first chemotherapy cycle, eligible patients underwent peripheral blood testing for immunological biomarkers (immune variables) every 2-3 days for a period of two weeks. The blood samples were tested for a total of 52 variables; that is, 52 measurements of cytokine concentrations and cell counts in blood samples.
The time series of six CRP concentration measurements was fitted to a sine curve. The curve was then extrapolated for two periods and the next consecutive peaks of CRP concentration were predicted. Based on the periodicity of CRP oscillations, TMZ chemotherapy was initiated prior to the estimated time of the next CPR peak, or on day 14 post-registration if the peak could not be identified.
The purpose of the curve fitting analysis is to determine whether any of the measured immune variables change in a predictable fashion following a cyclical pattern (dynamic equilibrium of immunity and cancer). Therefore, the goal of the curve fitting analysis is to assess whether concentrations of plasma cytokines/chemokines and immune cells fluctuate, and if so, to determine whether these fluctuations follow a mathematically predictable cyclical pattern. To that end, the plasma levels for the 52 immune variables ([…] different cytokines/chemokines/growth factors and the percentage of 22 immune cell subsets) in serial blood samples collected every 2-3 days prior to initiation of TMZ therapy were measured in 10 patients with metastatic malignant melanoma. […] Technical reproducibility was assessed by the coefficient of variation among duplicates (average coefficient of variation was 5.13% for 1593 data points).

[2] = tested on: patients with metastatic melanoma (stage IV); test: Phase II clinical trial MC1076 of timed administration of TMZ; assay type: in vivo, human; conditions: for number of patients with PFS >4 months: 17 patients
From the text: Eligible patients had unresectable, histologically confirmed stage IV disease, age over 18 years, measurable disease as defined by the Response Evaluation Criteria in Solid Tumors (RECIST), Eastern Cooperative Oncology Group (ECOG) performance status of 0-2, and life expectancy≥3 months (See Table 10). Both previously untreated patients and patients who have had prior therapy for their metastatic disease (excluding prior exposure to TMZ) were eligible. All patients provided signed informed written consent, and the study was approved by the Mayo Clinic Rochester Institutional Review Board. The TMZ dose was 150 mg/m2 on days 1-5 of cycle 1 and was increased to 200 mg/m2 on days 1-5 each month for all subsequent cycles if well tolerated. Patients were treated every 28 days until progression, unacceptable toxicity or patient refusal. Prior to initiation of first chemotherapy cycle, eligible patients underwent serial daily peripheral blood testing for 10 days of 69 immune biomarkers (42 cytokines, and 27 immune cell subtypes) per time point/patient. At the end of the sample collections, all data was jointly analyzed and a day for individualized TMZ delivery was calculated according to the proposed model (below). Patients received their therapy during the time, predicted by the model. All patients were followed for clinical outcomes.
Time-dependent profiles of blood concentration of IL-12p70, CD197/CD206, IL-1ra were built based on a series of pre-treatment measurements. The data was fitted to a sine curve and the extrapolated for a period of 10 days. Chemotherapy was initiated on the day when the extrapolated value of the combination of these immune parameters was at maximum.
The MC1076 study was designed to assess the anti-tumor activity of timed administration of TMZ. A two-stage phase II clinical trial design will be used to test the hypothesis that the 4 month PFS rate is at most 45% against the alternative hypothesis that the 4 month PFS rate is at least 65%. Progression-free survival was defined as the time from registration to documentation of disease progression or death without disease progression documented.
Analysis of infradian (multi-day) dynamics in systemic immunity of patients with metastatic melanoma. Based on data, both published and from our lab, we hypothesized that the anti-tumor systemic immune response in patients with cancer is not a static but a dynamic event. In order to study the global temporal behavior of systemic anti-tumor immunity, we conducted a phase II clinical trial (MC1076; NCT01328535). In this study, patients with metastatic melanoma underwent a period of immunological monitoring consisting of 10 daily PB collections (10 mL) over 12 days prior to initiation of therapy with TMZ. There was no blood collection on weekend days. At the end of the sample collection period, samples were batched analyzed (to minimize inter-assay variability for a given patient) for measurement of dynamic changes of plasma cytokines and immune cell subsets using established, standardized, and Good Laboratory Practice (GLP)-validated methodology in our laboratory.^35 Time-dependent profiles of immune variables (cytokines and immune cell subsets) were then analyzed and an optimal day for initiation of TMZ therapy was prospectively computed by the algorithm described below. […]

[3] = standard TMZ doses, 200 mg/m2 daily over 5 days, cycles every 28 days; cited from earlier work
[4] = tested on: non proliferating peripheral blood lymphocytes; conditions: therapeutical doses, in vitro; cited from earlier work
[5] = tested on: CD8+ effector T-cells and dendritic cells (DCs); conditions: therapeutical doses, in vitro; cited from earlier work
[6] = LMR <1 on the day of TMZ initiation
[7] = LMR >1 on the day of TMZ initiation

Cn1nnc2c(C(N)=O)ncn2c1=O [TMZ, temozolomide]
PFS ([1]; Table 4, one line per patient, 8 patients with metastatic cutaneous melanoma, TMZ 150 to 200 mg/m^2 days 1-5 every 4 weeks): 70 days and 68 days and 37 days and 916 days and 748 days and 132 days and 91 days and 77 days | PFS ([1]; Table 6, one line per patient, same 8 melanoma patients): 37 days and 91 days and 32 days and 77 days and 916 days and 841 days and 68 days and 70 days | average PFS ([1]; four patients with sum of ranks of IL12p70 and CD197/CD206 above 15): 68 days | average PFS ([1]; four patients with sum of ranks of IL12p70 and CD197/CD206 below 15): 466 days | PFS ([1]; two patients with disorganized (non-curve-fitting) anti-tumor immune responses): 71 days and 74 days | number of patients with PFS <4 months [2, 6]: 7 | number of patients with PFS >4 months [2, 6]: 1 | number of patients with PFS <4 months [2, 7]: 3 | number of patients with PFS >4 months [2, 7]: 6 | PFS ([2]; Table 11, one line per patient, 24 patients, time from registration to progression, CR = complete response): 644 days and 242 days and 184 days and 47 days and 83 days and 301 days and 136 days and 752 days and 102 days and 78 days and 39 days and 107 days and 72 days (2×) and 53 days and 48 days and 80 days and 73 days and 130 days and 77 days and 133 days and 198 days | serum concentrations [3]: up to 50 μM | impairment of non proliferating peripheral blood lymphocytes [4]: did not impair | impairment of the function of CD8+ effector T-cells and dendritic cells [5]: did not impair
